Reference: PMC7766104, “Inhibition of Biofilm Formation by Modified Oxylipins from the Shipworm Symbiont Teredinibacter turnerae” (Marine Drugs, 2020)
In brackets after ≈: the same amount, converted by molar mass. Entries after “also recorded” stand apart in the source; their conditions may differ.

Columns and labels:
[1] = system: planktonic S. epidermidis RP62A (ATCC 35984); assay: Planktonic cell viability, resazurin (from biofilm assay plate); assay type: cell-based, Staphylococcus epidermidis; details: for MIC: Staphylococcus epidermidis, ATCC35984, planktonic cells, lowest concentration with >98% growth inhibition; for bioactivity against microbial pathogens or mammalian cells (in words): statement covers the whole panel of Table 2 (staphylococcal pathogens and MDCK cells)
From the text: (§1) All seven compounds were subjected to a panel of bioactivity assays to assess their effects on staphylococcal pathogens and mammalian cells (Table 2). […] This fluorescent stain specifically binds to sialic acid and the N-acetylglucosaminyl residues of the biofilm. […] Growth inhibition in the microbial pathogens was quantified by monitoring the conversion of resazurin to the fluorescent resorufin product.
(§2) The biofilm inhibition assay was done according to the method of Skogman et al. (2012). […] A single colony from the CRA plate was transferred in 50 mL trypticasein soy broth supplemented with glucose (TSBg) and grown overnight at 35 °C, 150 rpm. The turbidity of the culture was adjusted to match the 0.5 McFarland standard (1 × 10^8 cells/mL) and diluted 100-fold prior to inoculation in a 96-well plate. […] TSBg served as the negative control, and positive controls were chloramphenicol (Sigma-Aldrich) for planktonic cells and dispersin B (Kane Biotech) for biofilms. Dispersin B is a 40 kDa glycoside hydrolase which dissolves mature bacterial biofilms. The plates were incubated for 20 h at 37 °C without shaking to facilitate biofilm formation. At the end of the incubation period, the planktonic suspension was transferred to another 96-well plate to assess cell viability. A 20 µL-aliquot of 0.02% resazurin was added to each well and incubated for 30 min at 37 °C, 150 rpm. Fluorescence was measured using a 530 nm excitation filter and a 590 nm emission filter. To quantify the formed biofilm, 100 µL-aliquot of wheat germ agglutinin Alexa Fluor 488 (WGA488) probe (50 µg/mL) was added to each well of the original plate and incubated in the dark at 4 °C for 5 h. At the end of incubation, the plate was washed with sterile PBS (3×) and air-dried at room temperature to remove the unbound WGA488 probe. Bound stain to the biofilm was dissolved in 33% glacial acetic acid and quantified by fluorescence measurement at 485 nm/420 nm excitation filters, and 528 nm/520 nm emission filters. […] This was done in two independent trials with four independent replicates.

[2] = system: S. epidermidis RP62A (ATCC 35984) biofilm formation; assay: Biofilm inhibition assay (WGA488 staining of formed biofilm); assay type: cell-based, Staphylococcus epidermidis; details: for Selectivity Index (MICPlanktonic/MBICBiofilm): S. epidermidis RP62A, MIC planktonic / MBIC biofilm; for MBIC S. epidermidis RP62A (ATCC 35984): lowest concentration causing >98% inhibition of biofilm formation, two independent trials in quadruplicates
From the text: as §1, §2

[3] = system: MDCK NBL-2 (ATCC CCL-34) cells; assay: cells; details: for IC50: Canis lupus familiaris, MDCK, 72 h, read-out: IC50 MDCK NBL-2 (ATCC CCL-34)
From the text: as §1
The mammalian antiproliferative assay was done according to Lacerna et al. (2019) and modified from the method of Mossman (1983). […] At 72 h post-incubation, the cells were treated with MTT and the absorbance at 570 nm was read. The IC50 was calculated using GraphPad Prism 5 based on a 4-point sigmoidal non-linear regression analysis of cell viability vs. log concentration of the inhibitor. The assay was done in two independent trials with four independent replicates.

[4] = system: Methicillin-resistant S. aureus (ATCC 43300); assay: Antimicrobial microdilution assay (resazurin); assay type: cell-based; details: Staphylococcus aureus; planktonic; >98% growth inhibition; 24 h; read-out: MIC Methicillin-Resistant S. aureus (ATCC 43,300)
Experimental: as §1
(§3) After 24 h of incubation, 0.02% resazurin (20 µL) was added to each well, and the fluorescence was measured at 530 nm excitation and 590 nm emission. MIC is the lowest concentration at which there was no reduction of the rezasurin dye, equivalent to 98% inhibition of microbial growth. Assays were done in two independent trials with four independent replicates.

[5] = system: S. aureus (ATCC 6538); assay: Antimicrobial microdilution assay (resazurin); assay type: cell-based; details: Staphylococcus aureus, ATCC6538; planktonic; >98% growth inhibition; 24 h
Experimental: as §1, §3

Compound: CCCCCCCCCCCCCCCC(=O)O [Compound 4, palmitic acid]
- MIC [1]: > 128 µg/mL
- bioactivity against microbial pathogens or mammalian cells (in words) [1]: did not show any significant bioactivity
- Selectivity Index (MICPlanktonic/MBICBiofilm) [2]: ~1
- MBIC S. epidermidis RP62A (ATCC 35984) [2]: >128 µg/mL
- cytotoxicity / antiproliferative action in mammalian MDCK cells (in words) [3]: cytotoxic activity
- IC50 [3]: > 128 µg/mL
- MIC [4]: > 128 µg/mL
- MIC [5]: > 128 µg/mL

Compound: CCCCC/C=C/C(=O)CCCCCCCC(=O)O [Compound 2, (E)-9-oxohexadec-10-enoic acid]
- MIC [1]: > 128 µg/mL
- inhibition of biofilm formation in S. epidermidis (in words) [2]: inhibited biofilm formation
- Selectivity Index (MICPlanktonic/MBICBiofilm) [2]: ~1
- IC50 [3]: 33 µg/mL (≈ 123 µM)
- MIC [4]: > 128 µg/mL
- MIC [5]: > 128 µg/mL

Compound: Cc1onc(-c2ccccc2)c1C(=O)N[C@@H]1C(=O)N2[C@@H]1SC(C)(C)[C@@H]2C(=O)O [oxacillin]
- MIC [4]: 8 µg/mL (≈ 19.9 µM)
- MIC [5]: 0.5 µg/mL (≈ 1.25 µM)

Compound: CCCCCCCCCCCCCCCCCC(=O)O [Compound 5, stearic acid]
- MIC [1]: > 128 µg/mL
- bioactivity against microbial pathogens or mammalian cells (in words) [1]: did not show any significant bioactivity
- Selectivity Index (MICPlanktonic/MBICBiofilm) [2]: ~1
- MBIC S. epidermidis RP62A (ATCC 35984) [2]: >128 µg/mL
- IC50 [3]: > 128 µg/mL
- MIC [4]: > 128 µg/mL
- MIC [5]: > 128 µg/mL

Compound: CCCCCC1OC1C(O)CCCCCCCCCC(=O)O (stereo not shown) [Compound 1, 11-hydroxy-12,13-epoxy-octadecanoic acid]
- MIC [1]: 128 µg/mL (≈ 407 µM)
- inhibition of biofilm formation in S. epidermidis (in words) [2]: inhibited biofilm formation
- Selectivity Index (MICPlanktonic/MBICBiofilm) [2]: ~4
- MBIC S. epidermidis RP62A (ATCC 35984) [2]: 32 µg/mL
- IC50 [3]: 61.7 µg/mL (≈ 196 µM)
- MIC [4]: > 128 µg/mL
- MIC [5]: > 128 µg/mL

Compound: CCCCC/C=C\CCCCCCCCCCC(=O)O [Compound 7, 12(Z)-octadecenoic acid]
- MBIC S. epidermidis RP62A (ATCC 35984) [2]: >128 µg/mL

Compound: O=C(N[C@H](CO)[C@H](O)c1ccc([N+](=O)[O-])cc1)C(Cl)Cl [chloramphenicol]
- MIC [1]: 8 µg/mL (≈ 24.8 µM)

Compound: CCCCC[C@@H]1O[C@H]1CCCCCCCCCCC(=O)O [Compound 6, trans-12,13-epoxy-octadecanoic acid]
- MIC [1]: > 128 µg/mL
- inhibition of biofilm formation in S. epidermidis (in words) [2]: inhibited biofilm formation
- Selectivity Index (MICPlanktonic/MBICBiofilm) [2]: >8
- MBIC S. epidermidis RP62A (ATCC 35984) [2]: 16 µg/mL
- cytotoxicity / antiproliferative action in mammalian MDCK cells (in words) [3]: no antiproliferative action
- IC50 [3]: > 128 µg/mL
- MIC [4]: > 128 µg/mL
- MIC [5]: > 128 µg/mL

Compound: CCCCC/C=C/C(=O)CCCCCCCCCC(=O)O [Compound 3, (E)-11-oxooctadec-12-enoic acid]
- antimicrobial activity against planktonic S. epidermidis (in words) [1]: showed antimicrobial activity
- MIC [1]: 16 µg/mL (≈ 54 µM)
- inhibition of biofilm formation in S. epidermidis (in words) [2]: inhibited biofilm formation; also recorded: potent but non-selective activity
- Selectivity Index (MICPlanktonic/MBICBiofilm) [2]: ~1
- MBIC S. epidermidis RP62A (ATCC 35984) [2]: 16 µg/mL
- cytotoxicity / antiproliferative action in mammalian MDCK cells (in words) [3]: demonstrated cytotoxicity
- IC50 [3]: 13.6 µg/mL (≈ 45.9 µM)
- MIC [4]: > 128 µg/mL
- MIC [5]: > 128 µg/mL
